Data set [1] deals with SARS-CoV-2 (2019-nCoV) virus (nCoV-2019BetaCoV/Wuhan/WIV04/2019 strain). Kind of data set: Reduction of viral nucleic acid load of Vero E6 cells infected by SARS-CoV-2 (qRT-PCR of supernatant). Type of data set: cell-based. The arrangement: Virus genome copy number: unit not given here. The settings on record: for Virus genome copy number: 48 h, Vero E6, 100TCID50, supernatant.

The subject of another data set is EBOV. Particulars: intravenous 10 mg/kg per day for consecutive 12 days, treatment started three days after virus exposure; cited from earlier work.
A further data set has as its system Vero E6 cells. Kind of data set: Cytotoxicity test of drug (CCK-8 kit). Type of data set: cell-based. Particulars: all test concentrations (0.14-100 μM), 48 hours.

“Also recorded” adds a separate entry of the source.

`CCC(CC)COC(=O)[C@H](C)N[P@](=O)(OC[C@H]1O[C@@](C#N)(c2ccc3c(N)ncnn23)[C@H](O)[C@@H]1O)Oc1ccccc1` [Remdesivir, 2-ethylbutyl (2S)-2-[[[(2R,3S,4R,5R)-5-(4-aminopyrrolo[2,1-f][1,2,4]triazin-7-yl)-5-cyano-3,4-dihydroxyoxolan-2-yl]methoxy-phenoxyphosphoryl]amino]propanoate]: the “Virus genome copy number” value is listed as 6120820311.5 in data set [1] (0.14 μM); 1751863138.5 in data set [1] (0.41 μM); 879273650.5 in data set [1] (1.23 μM); 20287512.5 in data set [1] (3.70 μM); 16308516.5 in data set [1] (11.11 μM); 12429732 in data set [1] (33.33 μM). In addition, in data set [1] (100 μM), the “Virus genome copy number” value came to 9010444.5. Besides, the “inhibition of the replication of the SARS-CoV-2 virus genome in the infected supernatant” value in data set [1] (concentrations of 100 μM, 33 μM, 11.1 μM and 3.7 μM) is given as “could effectively inhibit”. For the same molecule, the “reduction of the viral nucleic acid load” value in data set [1] (drug concentration of 33 μM, 48 hours after infection, Vero E6) is on record as “an order of magnitude”. In addition, in data set [1] (micromolar concentration level), the “viral nucleic acid load in cells infected by SARS-CoV-2” value is listed as “can reduce the viral nucleic acid load”. The “EBOV-infected animals protected from death” value in the data set on EBOV is on record as 100%. In the data set on EBOV, the “replication of EBOV” value is “significantly inhibit”. Besides, in the data set with Vero E6 cells, the “cytotoxicity (toxic effect on the cells)” value is listed as “no cytotoxicity was observed; also recorded: no toxic effect”.

Source of the values: patent publication US20210346411A1 (priority 2020, published 2021).
